The subject of test [1] is gene sequence of the codon 12 mutation of the KRAS gene. In words: Confirmation of alkylation of KRAS codon 12 mutation sequence, high resolution gel electrophoresis. The format is biochemical. Particulars: 23° C., 17 hours. Here is the method: A 25 μM pair of two fragments (5′-[…]-3′ (SEQ ID NO: 1) and 3′-[…]-5′ (SEQ ID NO: 2)) (final volume: 50 μL) was annealed to obtain a DNA fragment. The annealed fragment was ligated to a pGEM-T easy vector manufactured by […]. Thereafter, Escherichia coli (JM109) competent cells manufactured by Promega were transformed with the obtained product, and the resulting cells were then cultured at 37° C. overnight in a plate comprising an LB medium containing 100 μg/mL ampicillin. A transformed white colony of interest was identified by colony direct PCR using a 500 nM primer set (T7: 5′-TAATACGACTCACTATAGG-3′ (SEQ ID NO: 3); and sp6: 5′-[…]-3′ (SEQ ID NO: 4)) and 10 μL of a reaction solution containing 1 U GoTaq® Green Master Mix manufactured by Promega. The following amplification cycle was applied. […]
A DNA fragment, 213 base pairs in length, the 5′-terminus of which had been labeled with Texas Red, was synthesized using the above-described plasmid and primers (sp6: 5′-ATTTAGGTGACACTATAG-3′ (SEQ ID NO: 5), and T7: 5′-[…]-3′ (SEQ ID NO: 6), with 5′-terminus labeled with Texas Red). The obtained DNA fragment, the 5′-terminus of which had been labeled with Texas Red, was purified using PCR-Clean Up Kit manufactured by Sigma, and the concentration was then determined by UV absorption. […]

The next test deals with K375. In words: Cytotoxicity test, WST-8 (cell counting kit-8), 48 hours. Particulars: K375, KRAS G12D Hetero, read-out: KR12 IC50. Type of test: cell-based. The procedure:
(§1) Using colon cancer and pancreatic cancer cell lines, the cells were seeded in each well of a 96-well microplate, resulting in a cell density of 3000 to 5000 cells/well, and they were then cultured overnight. On the following day, the cells of each type were treated with KR12 recognizing a codon 12 mutation in concentrations of 1 nM, 10 nM, 30 nM, 100 nM, 300 nM, and 1 μM for 48 hours. Thereafter, a WST-8 reagent was added to each well, using cell counting kit-8, and the obtained mixture was then reacted for 2 hours. After that, the number of cells was counted at a wavelength of 450 nm according to a colorimetric analysis method using a microplate reader. The method of counting the number of cells comprises: 1) obtaining the mean value of the medium alone, 2) subtracting the mean value of the medium from each well, 3) obtaining the mean value of DMSO, 4) dividing the medium-subtracted value by the mean value of DMSO and then multiplying by 100, 5) obtaining the mean value of each treatment group and a standard deviation, and then preparing a graph. The calculation formula of IC50 is the following: IC50=10 (LOG (A/B)×(50−C)/(D−C)+LOG (B)), wherein A: a higher concentration of two concentrations sandwiching 50%, B: a lower concentration of two concentrations sandwiching 50%, C: inhibitory percentage at B, and D: inhibitory percentage at A.

A further test concerns PANC-1. The test is described as above. The format is cell-based. Particulars: Homo sapiens, PANC-1, KRAS G12D Hetero, read-out: KR12 IC50. Here is the method:
as §1

In the next test the test system is HT29 (KRAS-WT). In words: Suppression of tumor growth in nude mice, HT29 transplanted. The format is in vivo. Particulars: nude mice with HT29 cells; 3.4 mmol KR12 via the caudal vein; FIG. 14A. The procedure: (§2) The below-mentioned 3 types of PBS solutions containing each type of cells were subcutaneously transplanted into the femurs of nude mice (i.e., HT29 into 7 mice, LS180 into 7 mice, and SW480 into 6 mice), and thereafter, at a time point in which a tumor adhered to the living body of each mouse and the tumor volume became approximately 100 mm^3, a drug was prepared with a composition of 3.4 mmol KR12 (1.36 mM KR12 dissolved in 2.5 μL of DMSO and 197.5 μL of PBS), or of a DMSO/PBS control (2.5 μL of DMSO and 197.5 μL of PBS). The prepared drug was subjected to sonication for 10 minutes, and 200 μL of the drug was administered to each mouse via the caudal vein thereof. The body weight and the tumor size were measured once three days, and the size of the tumor was measured by the method of 0.52×L×W×D(1/6×π×L×W×D).
HT29 (KRAS-WT): (transplanted in an amount of 2×10^6 cells/100 μl PBS into the subcutis of each mouse; a wild-type KRAS codon 12 cell line having no codon 12 mutations)

The subject of the next test is LS180 (KRAS-MUThetero). In words: Suppression of tumor growth in nude mice, LS180 transplanted. The format is in vivo. Particulars: nude mice with LS180 cells; 3.4 mmol KR12 via the caudal vein; FIG. 14B. The procedure:
as §2
LS180 (KRAS-MUThetero): (transplanted in an amount of 3×10^6 cells/100 μl PBS into the subcutis of each mouse; a cell line having a heterozygous KRAS gene codon 12 mutation G12D)

We go through 1 compound from patent US11185593B2, “Alkylating agent for alkylating target with driver oncogene mutation” (Chiba Prefecture, priority 2013, dated 2021).

Structures are written as SMILES.

The IC50 is the concentration that inhibits the measured activity by half. For the compound `CC(=O)Nc1cn(C)c(C(=O)Nc2cc(C(=O)NCCC(=O)Nc3cn(C)c(C(=O)Nc4cn(C)c(C(=O)Nc5cc(C(=O)Nc6cn(C)c(C(=O)NCCCC(=O)Nc7cc(C(=O)Nc8cn(C)c(C(=O)NCCC(=O)Nc9cc(C(=O)Nc%10cc(C(=O)Nc%11ccc%12[nH]c(C(=O)N%13CC(CCl)c%14c%13cc(O)c%13ccccc%14%13)cc%12c%11)n(C)c%10)n(C)c9)n8)n(C)c7)n6)n(C)c5)n4)n3)n(C)c2)n1` (stereo not drawn) [KR12], the “alkylation of the gene sequence of the codon 12 mutation of the KRAS gene” value is listed as “specifically induced concentration-dependent alkylation” in test [1] (mutated KRAS sequence of AsPC-1 cells (G12D), FIG. 7B) and “specifically induced concentration-dependent alkylation” in test [1] (mutated KRAS sequence of SW480 cells (G12V), FIG. 7A). Further, the IC50 is 0.078 µM in the test with K375 and 0.081 µM with PANC-1. Besides, the values for the tumor growth result with HT29 (KRAS-WT) and with LS180 (KRAS-MUThetero) were “could not be suppressed” and “significantly suppressed”, respectively.
